Like-named read-outs stand apart in the source and are kept apart here.
Columns and labels:
Format in all cases: cell-based
[1] = test system: CRL-2813 human melanoma cancer cells; assay: cell proliferation (SRB) assay, CRL-2813; settings: Homo sapiens, CRL2813
How it was run: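 Cells exposed 5 days to 0.5–20 μM compound, then TCA-fixed and stained with sulforhodamine B. Growth as 100×[(T−T0)/(C−T0)] from absorbance of treated, control and time-zero cultures; cell death as 100×[(T−T0)/T0] where T is below T0.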

ASPC-1 = assay: cell proliferation assay, ASPC-1; settings: Homo sapiens, ASPC1; ASPC-1, Pancreas; read-out: IC50
Protocol: (§1) Cells were seeded in 96-well plates and maintained for 5 days in the presence of 0.5 to 20 μM of individual compound, and cell proliferation was measured by the sulforhodamine B (SRB) assay as described previously (see, for example, Palakurthi, S. S. et al. Cancer Research 2000, 60(11), 2919-2925). Briefly, at the end of a 5-day treatment, cells were fixed in 10% cold trichloroacetic acid. Cell number was estimated by measuring the remaining bound dye of sulforhodamine B after washing. The percentage of growth was calculated by using the equation: 100×[(T−T0)/(C−T0)], where T and C represent the absorbance in treated and control cultures at Day 5, and T0 at time zero, respectively. If T is less than T0, cell death has occurred and can be calculated from 100×[(T−T0)/T0].
The compounds shown in Table 7 were evaluated using for activation of HRI using the dual luciferase surrogate eIF2α phosphorylation assay (see, for example, Chen, T. et al. Nature Chem Biol 2011, 7, 610-616) and for inhibition of cell proliferation using the SRB assay (see, for example, Palakurthi, S. S. et al. Cancer Res 2000, 60, 2919-2925) as described above.

[2] = test system: CRL-2813 human melanoma cancer cells transfected with HRI-targeting or non-targeting siRNA; assay: cell proliferation (SRB) assay after HRI knockdown; settings: CRL-2813 cells, FIG. 10
Protocol: as §1
Cell proliferation is a meaningful read-out for determining the specificity of a compound as it captures both on-target and off-target effects of the compound under study. […] If these compounds specifically activate HRI and this activity is required for the inhibition of cell proliferation, then reducing the expression of HRI should blunt their effect on cell proliferation. For this purpose, expression of HRI was knocked down in CRL-2813 human melanoma (about 70% knockdown efficiency) and MCF-7 human breast cancer cells (about 90% knockdown efficiency). These two cell lines were chosen because the HRI knockdown efficiency is lower in CRL-2813 than in MCF-7 cells providing a sort of dose-response data that correlates knockdown efficiency with the resistance of cells to inhibition of cell proliferation. […] Referring to FIG. 5A, CRL-2813 human melanoma cancer cells, and (FIG. 5B) MCF-7 human breast cancer cells were transfected with HRI targeted or non-targeted siRNA, treated with the indicated concentrations of I-6p and cell proliferation was measured by SRB assay. Calculated IC50 for all four compounds tested in CRL-2813 human melanoma cancer cells and MCF-7 human breast cancer cells transfected with non-target siRNA control (NTC) or HRI is shown in FIG. 5C and FIG. 5D, respectively. The experiment was conducted in triplicate and each experiment was independently performed three times. Data are shown as Mean±S.E.M. *NTC=non-target siRNA control.
Referring to FIG. 8, CRL-2813 human melanoma cancer cells were transfected with HRI targeted or non-targeted siRNA, treated with the indicated concentrations of (A) I-14, (B) I-15, (C) III-4 and (D) III-5 and cell proliferation was measured by SRB assay. Calculated IC50 for all four compounds tested in CRL-2813 human melanoma cancer cells transfected with non-target siRNA control (NTC) or HRI is shown in (E). The experiment was conducted in triplicate and each experiment was independently performed three times. Data are shown as Mean±S.E.M. *NTC=non-target siRNA control, IC50=effective dose of drug that inhibit cell proliferation by 50%.
In general, if the affinity of compounds for their molecular target is increased this should result in higher specificity of the compounds in the cell proliferation assay. […] These five compounds, two with average and three with high potency, were tested in cell proliferation assay using CRL-2813 cells transfected with non-targeted siRNA or HRI-targeted siRNA as described above.

NIH/3T3 fibroblast cells = assay: cell proliferation (SRB) assay, NIH/3T3; settings: for IC50: Mus musculus, NIH3T3
Protocol: as §1
The experiments were conducted in triplicate, and each experiment was independently performed three times. IC50=effective dose of drug that inhibit cell proliferation by 50%. Data are shown as Mean±S.E.M.
Compounds I-6p, I-17, I-18 and I-20 were tested in NIH/3T3 fibroblast and CRL-2813 melanoma cancer cells in cell proliferation assay. The experiment was conducted in triplicate and each experiment was independently performed three times. Data are shown as Mean IC50±S.E.M.

[3] = test system: MCF-7 human breast cancer cells; assay: cell proliferation assay, MCF-7; settings: MCF7, MCF-7, Breast
Protocol: as §1

A-549 = assay: cell proliferation assay, A-549; settings: Homo sapiens, A549; A-549, Lung
Protocol: as §1

HEP B3 = assay: cell proliferation assay, HEP B3; settings: HEP B3, Liver
Protocol: as §1

ACHN = assay: cell proliferation assay, ACHN; settings: Homo sapiens, Kidney
Protocol: as §1

IC50 ([1]; CRL-2813, Table 8, Mean IC50±S.E.M., read-out: IC50 of compounds): 690 ± 100 nM
IC50 ([1]; cell proliferation assay, Table 3, cell line not named, values equal CRL-2813 values of Table 8, read-out: IC50): 690 ± 100 nM
IC50 (ASPC-1): 2400 nM
fold higher IC50 values in cells transfected with HRI-targeting siRNA vs. non-targeting siRNA [2]: ~6 fold
IC50 [3]: 1300 nM
IC50 (A-549): 900 nM
IC50 (ACHN): 1400 nM
Structure (SMILES): O=C(Nc1cccc(C(F)(F)F)c1)NC1CCC(Oc2ccc(OC(F)(F)F)cc2)CC1 (centres unmarked) [Compound I-17, 1-(4-(4-(trifluoromethoxy)phenoxy)cyclohexyl)-3-(3-(trifluoromethyl)phenyl)urea]
fold higher potency on cancer cells compared to non-transformed cells (NIH/3T3 fibroblast cells; CRL-2813 human melanoma vs NIH-3T3 fibroblast): five-fold higher potency
IC50 (NIH/3T3 fibroblast cells; NIH/3T3, Table 5, Mean±S.E.M., read-out: IC50): 3400 ± 200 nM
IC50 (NIH/3T3 fibroblast cells; NIH/3T3, Table 8, Mean IC50±S.E.M., read-out: IC50 of compounds): 3400 ± 200 nM
IC50 (HEP B3): 1800 nM
